{"source": "patent US6525000B1", "about": "“Method for producing anellated triazoles and new anellated triazoles and their use” (BASF Aktiengesellschaft, priority 1998, dated 2003)", "assay_in_all_cases": "greenhouse post-emergence herbicidal test", "type_in_all_cases": "in vivo", "key": {"Abutilon theoprasti": {"system": "Abutilon theoprasti", "conditions": "ABUTH, 100 = complete destruction, 0 = no damage", "text": "(§1) The seeds of the test plants were sown separately for each species. For the post-emergence treatment, the test plants were first grown to a plant height of from 3 to 15 cm, depending on plant habit, and only then treated with the active ingredients which had been suspended or emulsified in water. For this purpose, the test plants were either sown directly and grown in the same containers, or they were first grown separately as seedlings and transplanted into the test containers a few days prior to treatment. The rate of application for the post-emergence treatment was 0.0313 or 0.0156 kg of a.s./ha. Dependingon the species, the plants were kept at from 10-25° C. or 20-35° C. The test period extended over 2 to 4 weeks. During this time, the plants were tended, and their response to the individual treatments was evaluated. Evaluation was carried out using a scale from 0 to 100. 100 means no emergence of the plants, or complete destruction of at least the ariel plants, and 0 means no damage or normal course of growth. The plants used in the experiments belonged to the following species: [table]"}, "Veronica spp.": {"system": "Veronica spp.", "conditions": "VERSS, 100 = complete destruction, 0 = no damage", "text": "as §1"}, "Solanum nigrum": {"system": "Solanum nigrum", "conditions": "SOLNI, 100 = complete destruction, 0 = no damage", "text": "as §1"}, "Chenopodium album": {"system": "Chenopodium album", "conditions": "CHEAL, 100 = complete destruction, 0 = no damage", "text": "as §1"}, "Polygonum persicaria": {"system": "Polygonum persicaria", "conditions": "POLPE, 100 = complete destruction, 0 = no damage", "text": "as §1"}, "Galium aparine": {"system": "Galium aparine", "conditions": "GALAP, 100 = complete destruction, 0 = no damage", "text": "as §1"}}, "data": [{"smiles": "CON=Cc1cc(N2C(=O)C3COCNN3C2=O)c(F)cc1Cl", "note": "(stereo not drawn) [Ex. 1d, 8-(4′-chloro-2′-fluoro-5′-methoxyiminomethylphenyl)-4-oxa-7,9-dioxo-1,2,8-triaza[4.3.0.]nonane]", "values": [{"measurement": "herbicidal activity, evaluation on a scale from 0 to 100", "setting": "Abutilon theoprasti; 0.0156 kg of a.s./ha", "value": 100}, {"measurement": "herbicidal activity, evaluation on a scale from 0 to 100", "setting": "Abutilon theoprasti; 0.0313 kg of a.s./ha", "value": 100}, {"measurement": "herbicidal activity, evaluation on a scale from 0 to 100", "setting": "Veronica spp.; 0.0156 kg of a.s./ha", "value": 100}, {"measurement": "herbicidal activity, evaluation on a scale from 0 to 100", "setting": "Veronica spp.; 0.0313 kg of a.s./ha", "value": 100}, {"measurement": "herbicidal activity, evaluation on a scale from 0 to 100", "setting": "Solanum nigrum; 0.0156 kg of a.s./ha", "value": 100}, {"measurement": "herbicidal activity, evaluation on a scale from 0 to 100", "setting": "Solanum nigrum; 0.0313 kg of a.s./ha", "value": 100}, {"measurement": "herbicidal activity, evaluation on a scale from 0 to 100", "setting": "Chenopodium album; 0.0156 kg of a.s./ha", "value": 98}, {"measurement": "herbicidal activity, evaluation on a scale from 0 to 100", "setting": "Chenopodium album; 0.0313 kg of a.s./ha", "value": 98}, {"measurement": "herbicidal activity, evaluation on a scale from 0 to 100", "setting": "Polygonum persicaria; 0.0156 kg of a.s./ha", "value": 98}, {"measurement": "herbicidal activity, evaluation on a scale from 0 to 100", "setting": "Polygonum persicaria; 0.0313 kg of a.s./ha", "value": 98}, {"measurement": "herbicidal activity, evaluation on a scale from 0 to 100", "setting": "Galium aparine; 0.0156 kg of a.s./ha", "value": 98}, {"measurement": "herbicidal activity, evaluation on a scale from 0 to 100", "setting": "Galium aparine; 0.0313 kg of a.s./ha", "value": 98}]}]}
